Test results: ChEMBL document CHEMBL4270552, “4-(Phenoxy) and 4-(benzyloxy)benzamides as potent and selective inhibitors of mono-ADP-ribosyltransferase PARP10/ARTD10” (Eur J Med Chem, 2018)

Target: T1, Poly [ADP-ribose] polymerase tankyrase-1 (Homo sapiens, UniProt O95271)
T1 sequence (O95271 whole entry): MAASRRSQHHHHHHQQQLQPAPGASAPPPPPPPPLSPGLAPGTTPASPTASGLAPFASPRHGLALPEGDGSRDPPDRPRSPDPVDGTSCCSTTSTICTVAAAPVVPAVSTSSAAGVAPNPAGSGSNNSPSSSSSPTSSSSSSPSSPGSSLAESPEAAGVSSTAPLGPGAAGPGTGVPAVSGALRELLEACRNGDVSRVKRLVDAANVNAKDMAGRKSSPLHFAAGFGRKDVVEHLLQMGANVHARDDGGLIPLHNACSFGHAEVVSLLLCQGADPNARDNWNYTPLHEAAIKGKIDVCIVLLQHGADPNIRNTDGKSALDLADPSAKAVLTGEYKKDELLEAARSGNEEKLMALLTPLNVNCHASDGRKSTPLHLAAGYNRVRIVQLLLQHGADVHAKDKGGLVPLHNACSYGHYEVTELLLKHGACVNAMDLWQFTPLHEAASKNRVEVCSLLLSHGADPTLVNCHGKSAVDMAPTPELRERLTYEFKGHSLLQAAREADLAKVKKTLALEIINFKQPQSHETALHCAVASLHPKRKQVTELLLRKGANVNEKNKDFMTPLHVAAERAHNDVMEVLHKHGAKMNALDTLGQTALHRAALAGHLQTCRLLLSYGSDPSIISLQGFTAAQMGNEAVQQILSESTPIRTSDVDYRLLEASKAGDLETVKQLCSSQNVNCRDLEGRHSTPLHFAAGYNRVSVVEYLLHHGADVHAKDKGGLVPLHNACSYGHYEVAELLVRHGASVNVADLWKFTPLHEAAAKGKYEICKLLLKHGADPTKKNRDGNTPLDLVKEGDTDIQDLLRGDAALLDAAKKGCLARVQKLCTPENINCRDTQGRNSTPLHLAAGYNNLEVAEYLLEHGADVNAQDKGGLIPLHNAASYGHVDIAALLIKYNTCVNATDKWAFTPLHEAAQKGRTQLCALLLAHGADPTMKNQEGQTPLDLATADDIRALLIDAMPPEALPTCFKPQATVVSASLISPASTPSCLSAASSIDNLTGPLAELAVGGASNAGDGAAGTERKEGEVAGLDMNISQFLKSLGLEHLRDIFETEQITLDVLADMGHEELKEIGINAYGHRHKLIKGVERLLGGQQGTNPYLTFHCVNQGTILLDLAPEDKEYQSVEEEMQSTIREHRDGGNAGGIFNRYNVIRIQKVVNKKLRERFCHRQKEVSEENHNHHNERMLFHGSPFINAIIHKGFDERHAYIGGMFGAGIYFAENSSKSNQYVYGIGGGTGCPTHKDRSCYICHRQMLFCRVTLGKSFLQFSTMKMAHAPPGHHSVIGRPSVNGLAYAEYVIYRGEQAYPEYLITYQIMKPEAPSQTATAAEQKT
Experiment: Inhibition of N-terminal His-tagged human ARTD5 (1030 to 1317 residues) expressed in Escherichia coli Rosetta2 (DE3) using TCEP as substrate after 18 hrs in presence of NAD+
Details: not given

| Structure (SMILES) | IC50 [µM] |
| --- | --- |
| NC(=O)c1ccc(Oc2ccc(C(=O)O)cc2)cc1 | > 100 |
| COc1ccc(C(N)=O)cc1 | > 100 |
| NC(=O)c1ccc(Oc2ccc(C=O)cc2)cc1 | > 100 |
| NC(=O)c1ccc(OCc2ccccc2F)cc1 | > 100 |

Target: Poly [ADP-ribose] polymerase 1 (Homo sapiens, UniProt P09874)
Sequence (P09874 whole entry, the tested form may be a part): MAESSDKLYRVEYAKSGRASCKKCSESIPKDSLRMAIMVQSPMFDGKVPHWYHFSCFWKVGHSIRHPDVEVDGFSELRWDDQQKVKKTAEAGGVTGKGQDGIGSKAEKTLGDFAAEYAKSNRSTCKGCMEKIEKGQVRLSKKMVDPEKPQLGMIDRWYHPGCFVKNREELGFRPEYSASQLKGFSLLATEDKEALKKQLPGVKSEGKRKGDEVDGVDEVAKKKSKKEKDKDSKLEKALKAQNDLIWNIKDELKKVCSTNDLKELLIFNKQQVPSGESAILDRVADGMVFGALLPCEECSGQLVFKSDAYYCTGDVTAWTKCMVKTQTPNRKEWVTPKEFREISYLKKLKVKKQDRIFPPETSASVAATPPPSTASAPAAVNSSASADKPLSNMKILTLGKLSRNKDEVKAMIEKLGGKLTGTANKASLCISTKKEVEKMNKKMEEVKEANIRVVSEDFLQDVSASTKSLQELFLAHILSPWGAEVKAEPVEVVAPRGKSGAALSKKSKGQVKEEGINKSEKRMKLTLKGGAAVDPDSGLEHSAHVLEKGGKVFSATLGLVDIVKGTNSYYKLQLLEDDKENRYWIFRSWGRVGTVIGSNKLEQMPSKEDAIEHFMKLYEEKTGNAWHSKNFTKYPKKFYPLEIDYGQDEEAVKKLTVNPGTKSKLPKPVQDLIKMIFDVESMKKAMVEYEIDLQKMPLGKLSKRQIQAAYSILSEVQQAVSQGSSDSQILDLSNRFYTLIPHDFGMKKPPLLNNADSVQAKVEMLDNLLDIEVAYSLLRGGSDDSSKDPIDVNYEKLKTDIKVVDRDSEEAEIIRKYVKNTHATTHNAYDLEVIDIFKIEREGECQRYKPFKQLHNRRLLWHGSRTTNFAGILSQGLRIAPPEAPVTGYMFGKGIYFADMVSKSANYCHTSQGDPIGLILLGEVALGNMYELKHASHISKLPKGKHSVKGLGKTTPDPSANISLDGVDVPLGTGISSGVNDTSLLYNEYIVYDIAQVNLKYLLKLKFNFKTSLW
Experiment: Inhibition of N-terminal His-tagged human ARTD1 (1 to 1014 residues) expressed in Escherichia coli Rosetta2 (DE3) using activated DNA as substrate after 1.5 hrs in presence of NAD+
Details: not given

| Structure (SMILES) | IC50 [µM] |
| --- | --- |
| NC(=O)c1ccc(Oc2ccc(C(=O)O)cc2)cc1 | > 100 |
| COc1ccc(C(N)=O)cc1 | 57 |
| NC(=O)c1ccc(Oc2ccc(C=O)cc2)cc1 | > 100 |
| NC(=O)c1ccc(OCc2ccccc2F)cc1 | > 100 |

Target: T2, Protein mono-ADP-ribosyltransferase PARP10 (Homo sapiens) (UniProt Q53GL7)
T2 sequence (whole entry): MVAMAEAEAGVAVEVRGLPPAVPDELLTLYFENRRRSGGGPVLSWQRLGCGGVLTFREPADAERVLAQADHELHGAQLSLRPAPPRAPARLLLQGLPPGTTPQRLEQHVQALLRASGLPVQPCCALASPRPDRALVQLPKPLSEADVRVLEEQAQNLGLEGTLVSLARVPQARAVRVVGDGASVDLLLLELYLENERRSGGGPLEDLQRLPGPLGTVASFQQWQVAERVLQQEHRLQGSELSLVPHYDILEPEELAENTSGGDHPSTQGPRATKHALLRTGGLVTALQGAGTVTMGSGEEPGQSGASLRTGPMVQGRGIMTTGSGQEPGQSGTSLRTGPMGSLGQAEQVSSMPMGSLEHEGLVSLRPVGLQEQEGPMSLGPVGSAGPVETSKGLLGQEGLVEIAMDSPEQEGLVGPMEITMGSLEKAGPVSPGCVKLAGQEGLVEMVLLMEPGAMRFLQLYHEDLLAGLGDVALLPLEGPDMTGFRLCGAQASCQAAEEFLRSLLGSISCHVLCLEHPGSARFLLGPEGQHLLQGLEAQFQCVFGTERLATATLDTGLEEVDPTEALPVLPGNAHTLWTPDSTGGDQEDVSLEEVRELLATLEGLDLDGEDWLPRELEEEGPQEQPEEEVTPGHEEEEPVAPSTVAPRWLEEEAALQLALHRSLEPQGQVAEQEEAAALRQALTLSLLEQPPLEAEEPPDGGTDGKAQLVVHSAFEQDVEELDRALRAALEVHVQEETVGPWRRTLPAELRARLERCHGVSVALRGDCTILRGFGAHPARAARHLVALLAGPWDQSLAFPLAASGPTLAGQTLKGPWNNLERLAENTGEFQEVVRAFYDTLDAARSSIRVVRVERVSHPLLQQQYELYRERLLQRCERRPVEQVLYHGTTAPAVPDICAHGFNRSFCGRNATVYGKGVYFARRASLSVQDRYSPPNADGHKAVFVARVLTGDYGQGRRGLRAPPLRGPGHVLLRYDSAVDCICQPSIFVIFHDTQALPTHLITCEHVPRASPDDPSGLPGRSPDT
Details: not given

| Structure (SMILES) | ΔTm [°C] |
| --- | --- |
| NC(=O)c1ccc(Oc2ccc(C(=O)O)cc2)cc1 | 5.21 |
| COc1ccc(C(N)=O)cc1 | 2.76 |
| NC(=O)c1ccc(Oc2ccc(C=O)cc2)cc1 | 3.6 |
| NC(=O)c1ccc(OCc2ccccc2F)cc1 | 4.2 |

Target: Poly [ADP-ribose] polymerase 2 (Homo sapiens, UniProt Q9UGN5)
Sequence (Q9UGN5 whole entry, the tested form may be a part): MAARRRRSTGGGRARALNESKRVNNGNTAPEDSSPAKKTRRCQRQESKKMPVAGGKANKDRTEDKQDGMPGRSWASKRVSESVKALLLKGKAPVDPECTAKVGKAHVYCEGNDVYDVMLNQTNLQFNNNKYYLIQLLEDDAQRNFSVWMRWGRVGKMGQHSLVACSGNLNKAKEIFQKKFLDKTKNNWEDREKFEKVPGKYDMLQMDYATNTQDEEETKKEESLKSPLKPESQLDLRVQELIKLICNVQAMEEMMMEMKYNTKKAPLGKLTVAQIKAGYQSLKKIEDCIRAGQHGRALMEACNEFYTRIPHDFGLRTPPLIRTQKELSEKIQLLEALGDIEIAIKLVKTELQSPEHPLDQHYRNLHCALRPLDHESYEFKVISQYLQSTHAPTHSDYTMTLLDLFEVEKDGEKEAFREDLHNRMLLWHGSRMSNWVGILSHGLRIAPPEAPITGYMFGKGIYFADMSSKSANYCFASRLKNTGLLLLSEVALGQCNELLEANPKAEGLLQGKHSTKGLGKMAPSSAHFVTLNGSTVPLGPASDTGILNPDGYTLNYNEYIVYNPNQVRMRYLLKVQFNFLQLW
Experiment: Inhibition of N-terminal His-tagged thioredoxin-fused human ARTD2 (1 to 583 residues) expressed in Escherichia coli Rosetta2 (DE3) using activated DNA as substrate after 1.5 hrs in presence of NAD+
Details: not given

| Structure (SMILES) | IC50 [µM] |
| --- | --- |
| NC(=O)c1ccc(Oc2ccc(C(=O)O)cc2)cc1 | > 100 |
| COc1ccc(C(N)=O)cc1 | 77 |
| NC(=O)c1ccc(Oc2ccc(C=O)cc2)cc1 | > 100 |
| NC(=O)c1ccc(OCc2ccccc2F)cc1 | > 100 |

Target: Zinc finger CCCH-type antiviral protein 1 (Homo sapiens) (UniProt Q7Z2W4)
Sequence (Q7Z2W4 whole entry): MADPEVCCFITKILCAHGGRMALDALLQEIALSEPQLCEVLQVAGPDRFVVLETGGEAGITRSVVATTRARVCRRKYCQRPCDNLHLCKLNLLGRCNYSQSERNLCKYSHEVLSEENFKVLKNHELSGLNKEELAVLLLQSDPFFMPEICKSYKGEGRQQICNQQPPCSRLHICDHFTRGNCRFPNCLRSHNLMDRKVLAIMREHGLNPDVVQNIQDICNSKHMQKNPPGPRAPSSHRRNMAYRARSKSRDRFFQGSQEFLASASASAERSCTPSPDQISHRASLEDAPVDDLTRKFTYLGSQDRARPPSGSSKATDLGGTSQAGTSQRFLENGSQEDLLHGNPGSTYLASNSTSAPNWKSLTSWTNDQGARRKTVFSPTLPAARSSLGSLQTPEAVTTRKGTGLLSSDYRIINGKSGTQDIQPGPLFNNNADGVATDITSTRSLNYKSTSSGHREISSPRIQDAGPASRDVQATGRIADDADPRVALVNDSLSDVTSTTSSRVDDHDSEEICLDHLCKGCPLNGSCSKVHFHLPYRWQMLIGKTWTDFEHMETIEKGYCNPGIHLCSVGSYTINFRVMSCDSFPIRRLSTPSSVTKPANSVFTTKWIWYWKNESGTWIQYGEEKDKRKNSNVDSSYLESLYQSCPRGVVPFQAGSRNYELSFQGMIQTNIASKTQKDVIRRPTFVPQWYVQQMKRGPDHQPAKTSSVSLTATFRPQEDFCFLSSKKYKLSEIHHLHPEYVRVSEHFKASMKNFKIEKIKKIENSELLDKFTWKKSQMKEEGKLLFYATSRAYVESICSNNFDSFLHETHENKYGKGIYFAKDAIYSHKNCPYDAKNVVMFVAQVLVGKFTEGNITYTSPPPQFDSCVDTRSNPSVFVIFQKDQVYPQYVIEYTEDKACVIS
Details: not given

| Structure (SMILES) | ΔTm [°C] |
| --- | --- |
| NC(=O)c1ccc(Oc2ccc(C(=O)O)cc2)cc1 | 0.72 |
| COc1ccc(C(N)=O)cc1 | 0.44 |
| NC(=O)c1ccc(Oc2ccc(C=O)cc2)cc1 | 0.49 |
| NC(=O)c1ccc(OCc2ccccc2F)cc1 | 0.37 |

Target: T3, Protein mono-ADP-ribosyltransferase PARP10 (Homo sapiens, UniProt Q53GL7)
T3 sequence (Q53GL7 whole entry): T2 sequence (whole entry)
Experiment: Inhibition of C-terminal His-tagged human ARTD10 (809 to 1017 residues) expressed in Escherichia coli Rosetta2 (DE3) using SRPK2 as substrate after 13 hrs in presence of NAD+
Details: read-out: IC50

| Structure (SMILES) | IC50 [µM] |
| --- | --- |
| NC(=O)c1ccc(Oc2ccc(C(=O)O)cc2)cc1 | 0.18 |
| COc1ccc(C(N)=O)cc1 | 2.8 |
| NC(=O)c1ccc(Oc2ccc(C=O)cc2)cc1 | 0.71 |
| NC(=O)c1ccc(OCc2ccccc2F)cc1 | 0.23 |

Same assay, conditions: read-out: pIC50 (converted)

| Structure (SMILES) | IC50 [µM] |
| --- | --- |
| NC(=O)c1ccc(Oc2ccc(C(=O)O)cc2)cc1 | 0.186 |
| COc1ccc(C(N)=O)cc1 | 2.75 |
| NC(=O)c1ccc(OCc2ccccc2F)cc1 | 0.234 |
